Data published in PubChem BioAssay (NCI).
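Protocol summary: plate cells (96-well), add compound at 5 concentrations, incubate 48 h, interpolate endpoints linearly. Abbreviation: GI50, concentration required for 50% inhibition of growth. TGI marks complete inhibition of growth.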

What was measured:
Assay in all cases: NCI-60 cell line screen, 48 h
OVCAR-5 ovarian = tested on: OVCAR-5 ovarian
A549 NSCLC = tested on: A549 NSCLC
MDA-MB-435 = tested on: MDA-MB-435
CCRF-CEM leukemia = tested on: CCRF-CEM leukemia
UACC-257 melanoma = tested on: UACC-257 melanoma
SF-539 CNS = tested on: SF-539 CNS
UO-31 renal = tested on: UO-31 renal
TK-10 renal = tested on: TK-10 renal
MOLT-4 leukemia = tested on: MOLT-4 leukemia
BT-549 breast = tested on: BT-549 breast

SMILES | GI50 (OVCAR-5 ovarian) | TGI (OVCAR-5 ovarian) | GI50 (A549 NSCLC) | TGI (A549 NSCLC) | GI50 (MDA-MB-435) | TGI (MDA-MB-435) | GI50 (CCRF-CEM leukemia) | TGI (CCRF-CEM leukemia) | GI50 (UACC-257 melanoma) | TGI (UACC-257 melanoma) | GI50 (SF-539 CNS) | TGI (SF-539 CNS) | GI50 (UO-31 renal) | TGI (UO-31 renal) | TGI (TK-10 renal) | TGI (MOLT-4 leukemia) | GI50 (TK-10 renal) | GI50 (MOLT-4 leukemia) | GI50 (BT-549 breast) | TGI (BT-549 breast)
CN(C)CC(O)c1ccc(/C=C/c2ccc(Cl)cc2)cc1 (stereo unspecified) | 1.72 µM | 3.59 µM | 1.86 µM | 3.38 µM | 1.62 µM | 3.13 µM | 2.26 µM | 4.88 µM | 1.63 µM | 3.15 µM | 1.82 µM | 3.84 µM | 1.3 µM | 2.61 µM |  |  |  |  |  | 
CC1(C)CC(c2c[nH]c3ccccc23)=CC2=Nc3ccccc3C21O (stereo unspecified) |  | > 100 µM |  | > 100 µM |  |  |  | > 100 µM |  | > 100 µM |  | > 100 µM |  | > 100 µM | > 100 µM | > 100 µM |  |  |  | 
Clc1ccc2cccc3c2c1C1OC3c2ccccc21 (stereo unspecified) |  | > 100 µM |  | > 100 µM |  |  |  | > 100 µM |  | > 100 µM |  | > 100 µM |  | > 100 µM | > 100 µM | > 100 µM |  |  |  | 
CCOC(=O)n1cc(C2=C(c3ccc(OC)c(OC)c3)COC2=O)c2ccccc21 | 0.199 µM | > 100 µM | 0.11 µM | > 100 µM |  |  | 0.0367 µM | > 100 µM | 16.1 µM | > 100 µM | 0.031 µM | 0.156 µM | 0.0632 µM | > 100 µM | > 91.5 µM | > 100 µM | 13.5 µM | 0.0581 µM | 0.105 µM | 22.6 µM
Cc1cc(Nc2ccc(C)c(Cl)c2)n2nc(C(F)(F)F)nc2n1 | 38 µM | > 100 µM |  |  | 19 µM | 55.6 µM |  |  |  |  | 19.1 µM | 39 µM | 14.1 µM | 33.4 µM | 84.8 µM | 94.3 µM | 31.2 µM | 19.9 µM | 22.9 µM | 57.4 µM
S=P1(Oc2ccccc2)NNP2(=NP(N3CC3)(N3CC3)=NP(N3CC3)(N3CC3)=N2)NN1 (stereo unspecified) |  | > 100 µM |  | > 100 µM |  |  |  | > 100 µM |  | > 100 µM |  | > 100 µM |  | > 100 µM | > 100 µM | > 100 µM |  |  |  | 
COC1=CC(=O)C(C2(OC(C)C)OC(=O)C(Cl)=C2Cl)=CC1=O (stereo unspecified) |  | > 100 µM |  | > 100 µM |  | > 100 µM |  | > 100 µM |  | > 100 µM |  | > 100 µM |  | > 100 µM | > 100 µM |  |  |  |  | 
CCOC(=O)C1Sc2ccccc2N=C1C (stereo unspecified) |  | > 100 µM |  | > 100 µM |  |  |  |  |  | > 100 µM |  | > 100 µM |  | > 100 µM | > 100 µM | > 100 µM |  |  |  | 
Fc1cc(-c2nnc3n2N=C(c2ccc(Cl)cc2)CS3)c(Cl)cc1Cl | 15.5 µM | 32.7 µM | 18.7 µM | 41.8 µM | 4.97 µM | 18.4 µM | 0.328 µM | 1.13 µM | 14.7 µM | 28.8 µM | 3.35 µM | 11.1 µM | 2.99 µM | > 20.5 µM | 11.2 µM |  | 3.09 µM |  | 3.27 µM | 8.66 µM
CC(=O)[O-].CC(=O)[O-].O=C(N/N=C/c1cc(Cl)cc(Cl)c1O)c1ccncc1.[Cu+2] |  | > 100 µM |  | > 100 µM |  |  |  | > 100 µM |  | > 100 µM |  | > 100 µM |  | > 100 µM | > 100 µM | > 100 µM |  |  |  | 
